In PMC8659078, “A Validated HPLC-PDA-HRMS Method to Investigate the Biological Stability and Metabolism of Antiparasitic Triterpenic Esters” (Molecules, 2021):
Counter-ions that a name gives are not always drawn.

Columns and labels:
in vitro = conditions: male, mouse, pooled liver microsomes, pH 7.4
[1] = set-up: method as in earlier work; conditions: ref 3 (supplement); cited from earlier work
[2] = cited from earlier work

| Compound | bound to plasma proteins [2] | further results |
| --- | --- | --- |
| O=C(O)Cc1ccccc1Nc1c(Cl)cccc1Cl [Diclofenac, diclofenac sodium salt] |  | half-life (in vitro): 2.55 h |
| CCN(CC)CCOC(=O)c1ccc(N)cc1 [Procaine, Procaine hydrochloride] |  | time of hydrolysis by human plasma esterases into PABA [1]: ~ 10 min |
| C[C@H]1[C@H](C)CC[C@]2(C(=O)O)CC[C@]3(C)C(=CC[C@@H]4[C@@]5(C)C[C@@H](O)[C@H](O)[C@@](C)(CO)[C@@H]5CC[C@]43C)[C@H]12 [asiatic acid] | more than 95% |  |
| C=C(C)[C@@H]1CC[C@]2(C(=O)O)CC[C@]3(C)[C@H](CC[C@@H]4[C@@]5(C)CC[C@H](O)C(C)(C)[C@@H]5CC[C@]43C)[C@@H]12 [betulinic acid] | more than 95% |  |
| CC1(C)CC[C@]2(C(=O)O)CC[C@]3(C)C(=CC[C@@H]4[C@@]5(C)CC[C@H](O)C(C)(C)[C@@H]5CC[C@]43C)[C@@H]2C1 [oleanolic acid] | more than 95% |  |
| C[C@H]1[C@H](C)CC[C@]2(C(=O)O)CC[C@]3(C)C(=CC[C@@H]4[C@@]5(C)CC[C@H](O)C(C)(C)[C@@H]5CC[C@]43C)[C@H]12 [ursolic acid] | more than 95% |  |
